Assay results reported in patent US7238701B2, “Substituted tetrahydrobenzothienopyrimidinamine compounds useful for treating hyper-proliferative disorders” (Bayer Pharmaceuticals Corporation, priority 2003, dated 2007).

What was measured:
[1] = system: BT474 (human breast carcinoma); assay: In vitro tumor cell proliferation assay (Cell Titer-Glo luminescent cell viability), BT474 cells; format: cell-based; conditions: BT-474, 72 hours drug exposure, 10% Fetal Bovine Serum, ATP luminescence readout, read-out: IC50 (50% inhibition of cell proliferation)
Description: (§1) In vitro Tumor Cell Proliferation Assay
(§2) The tumor cell proliferation assay used to test the compounds of the present invention involves a readout called Cell Titer-Glow® Luminescent Cell Viability Assay developed by Promega (Cunningham, B A “A Growing Issue: Cell Proliferation Assays, Modern kits ease quantification of cell growth” The Scientist 2001, 15(13), 26, and Crouch, S P et al., “The use of ATP bioluminescence as a measure of cell proliferation and cytotoxicity” Journal of Immunological Methods 1993, 160, 81–88), that measures inhibition of cell proliferation. Generation of a luminescent signal corresponds to the amount of ATP present, which is directly proportional to the number of metabolically active (proliferating) cells.
(§3) A431cells (human epidermoid carcinoma, ATCC # HTB-20) and BT474 (human breast carcinoma, ATCC # CRL-1555) were plated at a density of 2.5×10^3 cells/well in 96 well black-clear bottom tissue culture plates in RPMI media with 10% Fetal Bovine Serum and incubated at 37° C. Twenty-four hours later, test compounds are added at a final concentration range from as high 100 μM to as low 64 pM depend on the activities of the tested compounds in serial dilutions at a final DMSO concentration of 0.1%. Cells were incubated for 72 hours at 37° C. in complete growth media after addition of the test compound. After 72 hours of drug exposure, the plates were equilibrated to room temperature for approximately 30 min. Then, using a Promega Cell Titer Glo Luminescent® assay kit, lysis buffer containing 100 microliters of the enzyme luciferase and its substrate, luciferin mixture, was added to each well. The plates were mixed for 2 min on orbital shaker to ensure cell lysis and incubated for 10 min at room temperature to stabilize luminescence signal. The samples were read on VICTOR 2 using Luminescence protocol, and analyzed with Analyze5 software to generate IC50 values.

[2] = system: A431cells (human epidermoid carcinoma); assay: In vitro tumor cell proliferation assay (Cell Titer-Glo luminescent cell viability), A431 cells; format: cell-based; conditions: A-431, 72 h, 72 hours drug exposure, 10% Fetal Bovine Serum, ATP luminescence readout, read-out: IC50 (50% inhibition of cell proliferation)
Description: as §1, §2, §3

| Compound | IC50 [1] [µM] | IC50 [2] [µM] |
| --- | --- | --- |
| Brc1cccc(Nc2ncnc3sc4c(c23)CCC(CCN2CCCC2)C4)c1 (stereo not shown) [Example 85, N-(3-bromophenyl)-7-[2-(1-pyrrolidinyl)ethyl]-5,6,7,8-tetrahydro[1]benzothieno[2,3-d]pyrimidin-4-amine] | < 5 | < 5 |
| COCCNCCC1CCc2c(sc3ncnc(Nc4cccc(Br)c4)c23)C1 (stereo not shown) [Example 86, N-(3-bromophenyl)-7-{2-[(2-methoxyethyl)amino]ethyl}-5,6,7,8-tetrahydro[1]benzothieno[2,3-d]pyrimidin-4-amine] | < 5 | < 5 |
| COCCN(C)CCC1CCc2c(sc3ncnc(Nc4cccc(Br)c4)c23)C1 (stereo not shown) [Example 87, N-(3-bromophenyl)-7-{2-[(2-methoxyethyl)(methyl)amino]ethyl}-5,6,7,8-tetrahydro[1]benzothieno[2,3-d]pyrimidin-4-amine] | < 5 | < 5 |
| Brc1cccc(Nc2ncnc3sc4c(c23)CCC(CCn2ccnc2)C4)c1 (stereo not shown) [Example 88, N-(3-bromophenyl)-7-[2-(1H-emidazol-1-yl)ethyl]-5,6,7,8-tetrahydro[1]benzothieno[2,3-d]pyrimidin-4-amine] | < 5 | < 5 |
| COc1ccc(NCCC2CCc3c(sc4ncnc(Nc5cccc(Br)c5)c34)C2)cc1 (stereo not shown) [Example 89, N-(3-bromophenyl)-7-{2-[(4-methoxyphenyl)amino]ethyl}-5,6,7,8-tetrahydro[1]benzothieno[2,3-d]pyrimidin-4-amine] | < 50 | < 50 |
| COCCC1CCc2c(sc3ncnc(Nc4cccc(Br)c4)c23)C1 (stereo not shown) [Example 90, N-(3-bromophenyl)-7-(2-methoxyethyl)-5,6,7,8-tetrahydro[1]benzothieno[2,3-d]pyrimidin-4-amine] | < 50 | < 50 |
| COCCN1CCN(C(=O)CC2CCc3c(sc4ncnc(Nc5cccc(Br)c5)c34)C2)CC1 (stereo not shown) [Example 91, N-(3-bromophenyl)-7-{2-[4-(2-methoxyethyl)-1-piperazinyl]-2-oxoethyl}-5,6,7,8-tetrahydro[1]benzothieno[2,3-d]pyrimidin-4-amine] | < 50 | < 50 |
| CN(C)[C@@H]1CCN(C(=O)CC2CCc3c(sc4ncnc(Nc5cccc(Br)c5)c34)C2)C1 (stereo partly drawn) [Example 92, N-(3-bromophenyl)-7-{2-[(3R)-3-(dimethylamino)-1-pyrrolidinyl]-2-oxoethyl}-5,6,7,8-tetrahydro[1]benzothieno[2,3-d]pyrimidin-4-amine] | < 5 | < 5 |
| COCCN1CCN(CCC2CCc3c(sc4ncnc(Nc5cccc(Br)c5)c34)C2)CC1 (stereo not shown) [Example 93, N-(3-bromophenyl)-7-{2-[4-(2-methoxyethyl)-1-piperazinyl]ethyl}-5,6,7,8-tetrahydro[1]benzothieno[2,3-d]pyrimidin-4-amine] | < 5 | < 5 |
| CN(C)[C@@H]1CCN(CCC2CCc3c(sc4ncnc(Nc5cccc(Br)c5)c34)C2)C1 (stereo partly drawn) [Example 94, N-(3-bromophenyl)-7-{2-[(3R)-3-(dimethylamino)-1-pyrrolidinyl]ethyl}-5,6,7,8-tetrahydro[1]benzothieno[2,3-d]pyrimidin-4-amine] | < 5 | < 5 |
| CC(C)(O)CC1CCc2c(sc3ncnc(Nc4cccc(Br)c4)c23)C1 (stereo not shown) [Example 95, 1-{4-[(3-bromophenyl)amino]-5,6,7,8-tetrahydro[1]benzothieno[2,3-d]pyrimidin-7-yl}-2-methyl-2-propanol] | < 5 | < 50 |
| COCCN(C)CCC1CCc2c(sc3ncnc(Nc4ccc(F)c(Cl)c4)c23)C1 (stereo not shown) [Example 96, N-(3-chloro-4-fluorophenyl)-7-{2-[(2-methoxyethyl)(methyl)amino]ethyl}-5,6,7,8-tetrahydro[1]benzothieno[2,3-d]pyrimidin-4-amine] | < 5 | < 5 |
| CS(=O)(=O)CCNCCC1CCc2c(sc3ncnc(Nc4ccc(F)c(Cl)c4)c23)C1 (stereo not shown) [Example 97, N-(3-chloro-4-fluorophenyl)-7-(2-{[(2-methylsulfonyl)ethyl]amino}ethyl)-5,6,7,8-tetrahydro[1]benzothieno[2,3-d]pyrimidin-4-amine] | < 5 | < 5 |
| CN(C)CCNCCC1CCc2c(sc3ncnc(Nc4ccc(F)c(Cl)c4)c23)C1 (stereo not shown) [Example 98, N^1-(2-{4-[(3-chloro-4-fluorophenyl)amino]-5,6,7,8-tetrahydro[1]benzothieno[2,3-d]pyrimidin-7-yl}ethyl)-N^2,N^2-dimethyl-1,2-ethanediamine] | < 5 | < 5 |
| Fc1ccc(Nc2ncnc3sc4c(c23)CCC(CCN2CCN(Cc3ccncc3)CC2)C4)cc1Cl (stereo not shown) [Example 99, N-(3-chloro-4-fluorophenyl)-7-{2-[4-(4-pyridinylmethyl)-1-piperazinyl]ethyl}-5,6,7,8-tetrahydro[1]benzothieno[2,3-d]pyrimidin-4-amine] | < 5 | < 50 |
| CN(C)[C@@H]1CCN(CCC2CCc3c(sc4ncnc(Nc5ccc(F)c(Cl)c5)c34)C2)C1 (stereo partly drawn) [Example 100, N-(3-chloro-4-fluorophenyl)-7-{2-[(3R)-3-(dimethylamino)-1-pyrrolidinyl]ethyl}-5,6,7,8-tetrahydro[1]benzothieno[2,3-d]pyrimidin-4-amine] | < 50 | < 50 |
| COCCC1CCc2c(sc3ncnc(Nc4ccc(F)c(Cl)c4)c23)C1 (stereo not shown) [Example 101, N-(3-chloro-4-fluorophenyl)-7-(2-methoxyethyl)-5,6,7,8-tetrahydro[1]benzothieno[2,3-d]pyrimidin-4-amine] | < 5 | < 50 |
| OCCC1CCc2c(sc3ncnc(Nc4cccc(Br)c4)c23)C1 (stereo not shown) [Example 102, 2-{4-[(3-bromophenyl)amino]-5,6,7,8-tetrahydro[1]benzothieno[2,3-d]pyrimidin-7-yl}ethanol] | < 50 | < 50 |
| O=C(CC1CCc2c(sc3ncnc(Nc4cccc(Br)c4)c23)C1)N1CCN(Cc2ccncc2)CC1 (stereo not shown) [Example 103, N-(3-bromophenyl)-7-{2-oxo-2-[4-(4-pyridinylmethyl)-1-piperazinyl]ethyl}-5,6,7,8-tetrahydro[1]benzothieno[2,3-d]pyrimidin-4-amine] | < 5 | < 50 |
| CN1CCN(C(=O)CC2CCc3c(sc4ncnc(Nc5ccc(Br)cc5F)c34)C2)CC1 (stereo not shown) [Example 105, N-(4-bromo-2-fluorophenyl)-7-[2-(4-methyl-1-piperazinyl)-2-oxoethyl]-5,6,7,8-tetrahydro[1]benzothieno[2,3-d]pyrimidin-4-amine] | < 5 | < 5 |
| CCOC(=O)CC1CCc2c(sc3ncnc(Nc4ccc(OCc5cccc(F)c5)c(Cl)c4)c23)C1 (stereo not shown) [Example 136, {4-[3-Chloro-4-(3-fluoro-benzyloxy)-phenylamino]-5,6,7,8-tetrahydro-benzo[4,5]thieno[2,3-d]pyrimidin-7-yl}-acetic acid ethyl ester] | < 5 | < 50 |
| OCCC1CCc2c(sc3ncnc(Nc4ccc(OCc5cccc(F)c5)c(Cl)c4)c23)C1 (stereo not shown) [Example 137, 2-{4-[3-Chloro-4-(3-fluoro-benzyloxy)-phenylamino]-5,6,7,8-tetrahydro-benzo[4,5]thieno[2,3-d]pyrimidin-7-yl}-ethanol] | < 5 | < 50 |
| Fc1cccc(COc2ccc(Nc3ncnc4sc5c(c34)CCC(CCBr)C5)cc2Cl)c1 (stereo not shown) [Example 138, [7-(2-Bromo-ethyl)-5,6,7,8-tetrahydro-benzo[4,5]thieno[2,3-d]pyrimidin-4-yl]-[3-chloro-4-(3-fluoro-benzyloxy)-phenyl]-amine] | < 5 | < 50 |
| Fc1cccc(COc2ccc(Nc3ncnc4sc5c(c34)CCC(CCN3CCOCC3)C5)cc2Cl)c1 (stereo not shown) [Example 139, N-{3-chloro-4-[(3-fluorobenzyl)oxy]phenyl}-7-(2-morpholin-4-ylethyl)-5,6,7,8-tetrahydro[1]benzothieno[2,3-d]pyrimidin-4-amine] | < 5 | < 5 |
| CN(C)[C@H]1CCN(CCC2CCc3c(sc4ncnc(Nc5ccc(OCc6cccc(F)c6)c(Cl)c5)c34)C2)C1 (stereo partly drawn) [Example 140, N-{3-chloro-4-[(3-fluorobenzyl)oxy]phenyl}-7-{2-[(3S)-3-(dimethylamino)pyrrolidin-1-yl]ethyl}-5,6,7,8-tetrahydro[1]benzothieno[2,3-d]pyrimidin-4-amine] | < 5 | < 5 |
| CN(C)[C@H]1CCN(CCC2CCc3c(sc4ncnc(Nc5ccc(OCc6ccccn6)c(Cl)c5)c34)C2)C1 (stereo partly drawn) [Example 141, N-[3-chloro-4-(pyridin-2-ylmethoxy)phenyl]-7-{2-[(3S)-3-(dimethylamino)pyrrolidin-1-yl]ethyl}-5,6,7,8-tetrahydro[1]benzothieno[2,3-d]pyrimidin-4-amine] | < 5 | < 5 |
